From PMC11596972, “Synthesis and Antimicrobial Activity of 3-Alkylidene-2-Indolone Derivatives” (Molecules, 2024)
≈ marks a conversion by molar mass, not a printed value. Like-named read-outs stand apart in the source and are kept apart here.

Experiments:
S. aureus ATCC 6538 = assay: MIC, double dilution method, S. aureus ATCC 6538; type: cell-based; details: Staphylococcus aureus, ATCC6538, 24 h
MRSA ATCC 43300 = assay: MIC, double dilution method, MRSA ATCC 43300; type: cell-based, Methicillin-resistant Staphylococcus aureus; details: MRSA ATCC 43300, Gram-positive, 24 h culture
P. aeruginosa CMCC 10211 = assay: MIC, double dilution method, P. aeruginosa CMCC 10211; type: cell-based; details: Pseudomonas aeruginosa
C. albicans CMCC 98001 = assay: MIC, double dilution method, C. albicans CMCC 98001; type: cell-based, Candida albicans; details: for MIC: C. albicans CMCC 98001, fungus, 24 h culture
E. coli 1924 = assay: MIC, double dilution method, E. coli 1924; type: cell-based, Escherichia coli
S. aureus 4220 = assay: MIC, double dilution method, S. aureus 4220; type: cell-based; details: Staphylococcus aureus, 4220, 24 h
E. coli ATCC 25922 = assay: MIC, double dilution method, E. coli ATCC 25922; type: cell-based; details: Escherichia coli
[1] = tested on: Candida albicans CMCC 98001; assay: Minimum fungicidal concentration, C. albicans CMCC 98001; type: cell-based
Protocol: Moreover, minimum bactericidal concentration (MBC (μg/mL)) or minimum fungicidal concentration (MFC (μg/mL)) assays were performed for the promising compounds 10d, 10f, 10g and 10h against Staphylococcus aureus ATCC 6538, Staphylococcus aureus 4220, Staphylococcus aureus ATCC 43300 and Candida albicans CMCC 98001, and shown in Table 2.
The minimum bactericidal concentration (MBC) or minimum fungicidal concentration (MFC) was determined as described, following the MIC assay, by subculturing 5 μL of the compounds from wells showing no visible growth onto fresh agar plates. The plates were incubated at 37 °C for 24 h.

Staphylococcus aureus = tested on: Staphylococcus aureus; parameters: method as in PMID 28946655; details: cited from earlier work
[2] = tested on: three Gram-positive bacteria strains and two Gram-negative bacteria strains; parameters: method as in PMID 29968851; details: cited from earlier work
[3] = tested on: four bacteria and three fungi; parameters: method as in doi:10.1007/s11164-013-1403-x; details: cited from earlier work
E. coli ATCC 25,922 = tested on: E. coli ATCC 25,922; parameters: method as in PMID 33839249; details: cited from earlier work
[4] = tested on: Gram-positive and Gram-negative bacterial strains; parameters: method as in PMID 27318539; details: most of the tested Gram-positive and Gram-negative bacterial strains; cited from earlier work
[5] = S. aureus ATCC 6538, Gram-positive, 24 h culture, read-out: MIC
[6] = Staphylococcus aureus, 24 h, read-out: MIC
[7] = CMCC10211, P. aeruginosa CMCC 10211, Gram-negative, 24 h culture, read-out: MIC
[8] = Candida albicans, CMCC98001, 24 h, read-out: MIC
[9] = Escherichia coli, E. coli 1924, Gram-negative, 24 h culture, read-out: MIC
[10] = S. aureus 4220, Gram-positive, 24 h culture, read-out: MIC
[11] = ATCC25922, E. coli ATCC 25922, Gram-negative, 24 h culture, read-out: MIC
[12] = Candida albicans, CMCC98001, 24 h

| SMILES | MIC (S. aureus ATCC 6538; [5]) [µg/mL] | MIC (MRSA ATCC 43300; [6]) [µg/mL] | MIC (P. aeruginosa CMCC 10211; [7]) [µg/mL] | MIC (C. albicans CMCC 98001; [8]) [µg/mL] | MIC (E. coli 1924; [9]) [µg/mL] | MIC (S. aureus 4220; [10]) [µg/mL] | MIC (E. coli ATCC 25922; [11]) [µg/mL] | also measured |
| --- | --- | --- | --- | --- | --- | --- | --- | --- |
| C/C(O)=C1/C(=O)N(C)c2ccccc21 [Compound 5a, (Z)-3-(1-hydroxyethylidene)-1-methylindolin-2-one] | > 64 | > 64 | 64 (≈ 338 µM) | 32 (≈ 169 µM) | 64 (≈ 338 µM) | 64 (≈ 338 µM) | > 64 | melting point: 95 to 97 °C |
| COc1cccc2c1N(C)C(=O)/C2=C(/C)O [Compound 5o, (Z)-3-(1-hydroxyethylidene)-7-methoxy-1-methylindolin-2-one] | > 64 | 64 (≈ 292 µM) | 64 (≈ 292 µM) | 32 (≈ 146 µM) | 16 (≈ 73 µM) | > 64 | > 64 |  |
| C/C(O)=C1/C(=O)N(C)c2ccc(C#N)cc21 [Compound 5p, (Z)-3-(1-hydroxyethylidene)-1-methyl-2-oxoindoline-5-carbonitrile] | 64 (≈ 299 µM) | > 64 | > 64 | > 64 | > 64 | 64 (≈ 299 µM) | > 64 |  |
| COc1ccc2c(c1)/C(=C(\C)O)C(=O)N2Cc1ccccc1 [Compound 5s, (Z)-1-benzyl-3-(1-hydroxyethylidene)-5-methoxyindolin-2-one] | 64 (≈ 217 µM) | 64 (≈ 217 µM) | > 64 | > 64 | 16 (≈ 54.2 µM) | 32 (≈ 108 µM) | > 64 |  |
| CCN1C(=O)/C(=C(/C)O)c2ccccc21 [Compound 5t, (Z)-1-ethyl-3-(1-hydroxyethylidene) indolin-2-one] | 64 (≈ 315 µM) | > 64 | > 64 | 32 (≈ 157 µM) | 32 (≈ 157 µM) | > 64 | > 64 |  |
| COc1ccc(CN2C(=O)/C(=C(/C)O)c3ccccc32)cc1 [Compound 5w, (Z)-3-(1-hydroxyethylidene)-1-(4-methoxybenzyl)indolin-2-one] | 64 (≈ 217 µM) | 64 (≈ 217 µM) | > 64 | 32 (≈ 108 µM) | 8 (≈ 27.1 µM) | > 64 | > 64 |  |
| CN1C(=O)/C(=C(\O)c2cccs2)c2ccccc21 [Compound 10a, (Z)-3-(hydroxy(thiophen-2-yl)methylene)-1-methylindolin-2-one] | 64 (≈ 249 µM) | 64 (≈ 249 µM) | 64 (≈ 249 µM) | 64 (≈ 249 µM) | 32 (≈ 124 µM) | > 64 | > 64 | melting point: 141 to 143 °C |
| CN1C(=O)/C(=C(\O)c2ccccc2)c2ccccc21 [Compound 10b, (Z)-3-(hydroxy(phenyl)methylene)-1-methylindolin-2-one] |  |  |  |  |  |  |  | MIC (S. aureus ATCC 6538): 8 µg/mL (≈ 31.8 µM); MIC (MRSA ATCC 43300; Staphylococcus aureus, 24 h): 32 µg/mL (≈ 127 µM); MIC (P. aeruginosa CMCC 10211; CMCC10211, 24 h): > 64 µg/mL; MIC (C. albicans CMCC 98001; [12]): > 64 µg/mL; MIC (E. coli 1924; Escherichia coli, 1924, 24 h): 8 µg/mL (≈ 31.8 µM); MIC (S. aureus 4220): 32 µg/mL (≈ 127 µM); MIC (E. coli ATCC 25922; ATCC25922, 24 h): 64 µg/mL (≈ 255 µM) |
| Cc1ccc(/C(O)=C2/C(=O)N(C)c3ccccc32)cc1 [Compound 10c, (Z)-3-(hydroxy(p-tolyl)methylene)-1-methylindolin-2-one] |  |  |  |  |  |  |  | MIC (S. aureus ATCC 6538): 2 µg/mL (≈ 7.54 µM); MIC (MRSA ATCC 43300): 16 µg/mL (≈ 60.3 µM); MIC (MRSA ATCC 43300; listed as 10v): 0.5 to 16 µg/mL; MIC (P. aeruginosa CMCC 10211; CMCC10211, 24 h): > 64 µg/mL; MIC (C. albicans CMCC 98001; [12]): 64 µg/mL (≈ 241 µM); MIC (E. coli 1924; Escherichia coli, 1924, 24 h): 8 µg/mL (≈ 30.2 µM); MIC (S. aureus 4220): 8 µg/mL (≈ 30.2 µM); MIC (E. coli ATCC 25922; ATCC25922, 24 h): 64 µg/mL (≈ 241 µM) |
| CN1C(=O)/C(=C(\O)c2ccc(F)cc2)c2ccccc21 [Compound 10d, (Z)-3-((4-fluorophenyl)(hydroxy)methylene)-1-methylindolin-2-one] |  |  |  |  |  |  |  | MIC (S. aureus ATCC 6538): 4 µg/mL (≈ 14.9 µM); MFC/MIC [1]: 2; MFC ([1]; CMCC98001, 99.9% reduction of inoculum): 16 µg/mL (≈ 59.4 µM); MIC (MRSA ATCC 43300; Staphylococcus aureus, 24 h): 32 µg/mL (≈ 119 µM); MIC (P. aeruginosa CMCC 10211; CMCC10211, 24 h): > 64 µg/mL; antifungal activity (class in words) (C. albicans CMCC 98001; C. albicans CMCC 98001): moderate antifungal activity; MIC (C. albicans CMCC 98001): 8 µg/mL (≈ 29.7 µM); MIC (C. albicans CMCC 98001; [12]): 8 to 16 µg/mL (≈ 29.7 to 59.4 µM); MIC (E. coli 1924; Escherichia coli, 1924, 24 h): 8 µg/mL (≈ 29.7 µM); MIC (S. aureus 4220): 16 µg/mL (≈ 59.4 µM); MIC (E. coli ATCC 25922; ATCC25922, 24 h): 64 µg/mL (≈ 238 µM) |
| CN1C(=O)/C(=C(\O)c2ccc(Cl)cc2)c2ccccc21 [Compound 10e, (Z)-3-((4-chlorophenyl)(hydroxy)methylene)-1-methylindolin-2-one] |  |  |  |  |  |  |  | MIC (S. aureus ATCC 6538): 2 µg/mL (≈ 7 µM); MIC (MRSA ATCC 43300; Staphylococcus aureus, 24 h): 16 µg/mL (≈ 56 µM); MIC (P. aeruginosa CMCC 10211; CMCC10211, 24 h): > 64 µg/mL; MIC (C. albicans CMCC 98001; [12]): 64 µg/mL (≈ 224 µM); MIC (E. coli 1924; Escherichia coli, 1924, 24 h): 8 µg/mL (≈ 28 µM); MIC (S. aureus 4220): 8 µg/mL (≈ 28 µM); MIC (E. coli ATCC 25922; ATCC25922, 24 h): 64 µg/mL (≈ 224 µM) |
| CN1C(=O)/C(=C(\O)c2ccc(Br)cc2)c2ccccc21 [Compound 10i, (Z)-3-((4-bromophenyl)(hydroxy)methylene)-1-methylindolin-2-one] |  |  |  |  |  |  |  | MIC (S. aureus ATCC 6538): 2 µg/mL (≈ 6.06 µM); MIC (MRSA ATCC 43300; Staphylococcus aureus, 24 h): 16 µg/mL (≈ 48.5 µM); MIC (P. aeruginosa CMCC 10211; CMCC10211, 24 h): > 64 µg/mL; MIC (C. albicans CMCC 98001; [12]): > 64 µg/mL; MIC (E. coli 1924; Escherichia coli, 1924, 24 h): 8 µg/mL (≈ 24.2 µM); MIC (S. aureus 4220): 16 µg/mL (≈ 48.5 µM); MIC (E. coli ATCC 25922; ATCC25922, 24 h): > 64 µg/mL |
| O=C1NC(c2c[nH]c3ccc(O)cc23)=C/C1=C1\C(=O)Nc2ccccc21 [Compound VI, violacein] |  |  |  |  |  |  |  | MIC (Staphylococcus aureus): 6.25 µM (≈ 2.15 µg/mL) |
| Cn1c([N+](=O)[O-])cnc1/C=C1/C(=O)Nc2ccc([N+](=O)[O-])cc21 [Compound XI] |  |  |  |  |  |  |  | MIC [2]: 0.0625 to 4 µg/mL |
| O=C1Nc2ccccc2/C1=C\C(=O)c1cc(Cl)c(Cl)cc1O [Compound X] |  |  |  |  |  |  |  | MIC [3]: 12 to 18 µg/mL |
| OC(Cn1cncn1)(Cn1cncn1)c1ccc(F)cc1F [Flu, Fluconazole, reference compound] | > 64 | > 64 | > 64 | 2 (≈ 6.53 µM) | > 64 | > 64 | > 64 |  |
| COc1c(N2CCNC(C)C2)c(F)cc2c(=O)c(C(=O)O)cn(C3CC3)c12 (centres unmarked) [Gati, Gatifloxacin, reference compound] | 0.5 (≈ 1.33 µM) | 0.5 (≈ 1.33 µM) | 0.5 (≈ 1.33 µM) | > 64 | 0.5 (≈ 1.33 µM) | 0.5 (≈ 1.33 µM) | 0.5 (≈ 1.33 µM) |  |
| CCC(=O)/C=C1/C(=O)N(CCn2cncn2)c2ccccc21 [IX] |  |  |  |  |  |  |  | MIC (E. coli ATCC 25,922): 1 µg/mL (≈ 3.37 µM) |
| CN(C)c1cccc2cc(S(=O)(=O)N3CCN(c4ccc(/C=C5\C(=O)Nc6ccccc65)cc4)CC3)ccc12 [VII] |  |  |  |  |  |  |  | MIC [4]: 12.5 to 50 µg/mL |
